Results taken from patent publication EP4356929A1, “ANTIFIBROTIC FORMULATION FOR OPHTHALMIC TREATMENT” (Universität Rostock, priority 2022, dated 2024).

Assay: physchem
Format: physicochemical
Conditions: aqueous gamma-cyclodextrin 200 mg/ml
Description: This hydrogel can then be loaded with JM, which forms a host-guest complex with the yCD molecules Fig. 2 the amount of chlorine in various EPI crosslinked hydrogel samples was quantified. The EPI contains chlorine, but the final crosslinked hydrogel should not. Gels washed at 37°C in DI water were given either three 1-hour washes (short wash) or two 1-hour washes followed by an overnight wash with water or Ethanol. […] Fig. 3 the maximum solubility of Josamycin in aqueous solutions of various yCD concentrations was measured. Soluble JM was measured by HPLC. […] The amount of JM released was measured over time and expressed as a percent of the total JM initially loaded into the gel. Most of the JM was released within the first 96 hrs. […] On the left are molded and washed gels, which have been completely dried. On the right is a fully rehydrated gel which is almost completely transparent. […] The total drug loading was linearly related to the amount of josamycin in the loading solution.
The first formulation developed is a solution of yCD and JM. Solutions of JM and yCD can be made up to 18.9 mg/ml JM with 200 mg/ml yCD. These solutions are formed by simply mixing the JM and yCD in water or PBS until dissolved. This liquid formulation can then be sterilized via syringe filter before use. The solution is suitable for application to the eye as an eye drop or injection during or after surgery. […]

Structure (SMILES): CO[C@@H]1[C@@H](O[C@@H]2O[C@H](C)[C@@H](O[C@H]3C[C@@](C)(O)[C@@H](OC(=O)CC(C)C)[C@H](C)O3)[C@H](N(C)C)[C@H]2O)[C@@H](CC=O)C[C@@H](C)[C@@H](O)/C=C/C=C/C[C@@H](C)OC(=O)C[C@H]1OC(C)=O [JM, josamycin]
- solubility: ≤ 18.9 mg/mL
